From patent publication US10793568B2, “Hormone receptor modulators for treating metabolic conditions and disorders” (ARDELYX, INC., priority 2016, dated 2020)

Tests used:
[1] = target: ligand binding domain of human FXR (Homo sapiens (Human), UniProt Q96RI1); experiment: FXR ligand binding assay (LanthaScreen TR-FRET, SRC2-2 peptide recruitment); details: for pEC50: -log EC50, concentration required to produce 50% activation; for Emax: extent of activation relative to GW4064, read-out: % Efficacy
ligand binding domain of human FXR, sequence (Q96RI1 262-486): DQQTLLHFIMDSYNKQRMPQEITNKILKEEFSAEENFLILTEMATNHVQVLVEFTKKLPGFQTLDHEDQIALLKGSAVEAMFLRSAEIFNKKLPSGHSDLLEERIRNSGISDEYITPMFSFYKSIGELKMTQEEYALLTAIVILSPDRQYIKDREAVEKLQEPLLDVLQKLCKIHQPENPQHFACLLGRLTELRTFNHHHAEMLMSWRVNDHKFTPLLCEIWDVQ
Method: The affinity of FXR ligands for the ligand binding domain of FXR was determined using a commercially available human FXR ligand binding assay (LanthaScreen, Thermofisher Cat # PV4833). […] Binding of FXR ligands to the FXR ligand binding domain promotes binding of the fluorescein-labelled SRC2-2 peptide. This causes a FRET signal between the terbium-labelled anti-GST antibody and the fluorescein-labelled SRC peptide which are both bound to the FXR ligand binding domain.
Test compounds are dissolved in DMSO and a 3-fold serial dilution series is generated, then further diluted into assay buffer. The compounds are mixed with 5 nM GST-tagged FXR ligand binding domain, 5 nM Tb-labelled anti-GST antibody and 500 nM fluorescein-labelled SRC2-2 peptide in a pH7.4 buffer. The reaction is incubated at room temperature for 1 hour, then the FRET signal is measured as the ratio of the 520 nm/495 nm emission following excitation at 340 nm. The change in FRET signal is plotted against the test article concentration and fit to a 3-parameter logistical equation. The concentration required to produce 50% activation is expressed as pEC50 (−log EC50), and the extent of activation is expressed relative to GW4064 as % activation.

[2] = target: human Farnesoid X receptor ligand-binding domain/Gal4 DNA binding domain chimera (Homo sapiens (Human), UniProt Q96RI1); experiment: Cell-based assay of FXR activation (FXR-UAS-bla HEK 293T beta-lactamase reporter); details: cellular FXR beta-lactamase reporter assay
human Farnesoid X receptor ligand-binding domain/Gal4 DNA binding domain chimera, sequence (Q96RI1 262-486, stated change not applied): as the sequence (Q96RI1 262-486) above
human Farnesoid X receptor ligand-binding domain/Gal4 DNA binding domain chimera, sequence (P04386 1-147 partner): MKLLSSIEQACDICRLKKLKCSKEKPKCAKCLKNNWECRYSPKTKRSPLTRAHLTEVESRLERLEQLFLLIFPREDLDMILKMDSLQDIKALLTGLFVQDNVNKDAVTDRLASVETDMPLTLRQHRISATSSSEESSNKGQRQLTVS
Method: FXR activation was measured using a cell line and procedure obtained from Life Technologies (Cat # K1691). FXR-UAS-bla HEK 293T cells contain a human Farnesoid X receptor ligand-binding domain/Gal4 DNA binding domain chimera stably integrated into the CellSensor® UAS-bla HEK 293T cell line. The CellSensor® UAS-bla HEK 293T contains a beta-lactamase reporter gene under control of a UAS response element stably integrated into HEK 293T cells. Activation of FXR by bound ligands results in transcriptional activation of the beta-lactamase reporter gene, which is detected via assay of beta-lactamase activity.
Cells are harvested and diluted into assay medium containing phenol red-free DMEM supplemented with 2% Charcoal-stripped FBS, pyruvate, non-essential amino acids. Cells are then transferred to a 384 well assay plate. Test compounds are dissolved in DMSO and a 3-fold serial dilution series is generated, then further diluted into assay medium. Compounds in assay medium are added to cells in the 384 well plate and allowed to incubate 16 h at 37 C in the presence of 5% CO2.
A FRET-based […] is loaded into cells as its acetomethoxy ester. Intracellular esterases liberate free CCF4, a cephalosporin core linking 7-hydroxycoumarin to fluorescein. In the presence of beta-lactamase activity produced in the presence of FXR agonists, cleavage of CCF4 spatially separates the two dyes and disrupts FRET, so that exciting the coumarin at 409 nm now produces a blue fluorescence signal at 447 nm. The change in FRET signal is plotted against the test compound concentration and fit to a 3-parameter logistical equation. The concentration required to produce 50% activation is expressed as pEC50 (−log EC50), and the extent of activation is expressed relative to GW4064 as % activation.

| SMILES | pEC50 [1] | Emax [1] | Emax ([2]; HEK-293T, extent of activation relative to GW4064, read-out: % Efficacy) | EC50 ([2]; FXR-UAS-bla HEK 293T cells, 16 h, pEC50 = -log EC50) |
| --- | --- | --- | --- | --- |
| Cc1cc(N2C[C@@H]3C[C@H]2C[C@H]3OCc2c(-c3c(Cl)cccc3Cl)noc2C2CC2)ccc1C(=O)O [Compound I-111, 4-((1S,4S,5R)-5-((5-cyclopropyl-3-(2,6-dichlorophenyl)isoxazol-4-yl)methoxy)-2-azabicyclo[2.2.1]heptan-2-yl)-2-methylbenzoic acid] | 9.3 | 132% | 100% | 1.26 nM |
| O=C(O)c1ncc(N2C(=O)[C@@H]3C[C@H]2C[C@H]3OCc2c(-c3c(Cl)cccc3Cl)noc2C2CC2)cc1F [Compound I-326, 5-[(1S,4R,5R)-5-{[5-cyclopropyl-3-(2,6-dichlorophenyl)-1,2-oxazol-4-yl]methoxy}-3-oxo-2-azabicyclo[2.2.1]heptan-2-yl]-3-fluoropyridine-2-carboxylic Acid] | 7.1 | 132% |  |  |
| C[C@@H]1[C@@H]2C[C@@H](C[C@H]2OCc2c(-c3c(Cl)cccc3Cl)noc2C2CC2)N1c1ccc(C(=O)NS(=O)(=O)C2CCOCC2)cn1 [Compound I-373, 6-[(1S,3R,4S,5R)-5-[[5-cyclopropyl-3-(2,6-dichlorophenyl)-1,2-oxazol-4-yl]methoxy]-3-methyl-2-azabicyclo[2.2.1]heptan-2-yl]-N-(oxane-4-sulfonyl)pyridine-3-carboxamide] | 7.2 | 62% |  |  |
| O=C(O)CCc1ccc(N2C(=O)[C@@H]3C[C@H]2C[C@H]3OCc2c(-c3c(Cl)cccc3Cl)noc2C2CC2)cn1 [Compound I-327, 3-{5-[(1S,4R,5R)-5-{[5-cyclopropyl-3-(2,6-dichlorophenyl)-1,2-oxazol-4-yl]methoxy}-3-oxo-2-azabicyclo[2.2.1]heptan-2-yl]pyridin-2-yl}propanoic Acid] | >5.5 |  |  |  |
| O=C(O)c1ccc(N2C(=O)[C@@H]3C[C@H]2C[C@H]3OCc2c(-c3c(Cl)cccc3Cl)noc2C2CC2)cn1 [Compound I-321, 5-[(1S,4R,5R)-5-{[5-cyclopropyl-3-(2,6-dichlorophenyl)-1,2-oxazol-4-yl]methoxy}-3-oxo-2-azabicyclo[2.2.1]heptan-2-yl]pyridine-2-carboxylic Acid] | 7.6 | 146% |  |  |
| O=C(O)c1ccc(N2C(=O)[C@@H]3C[C@H]2C[C@H]3OCc2c(-c3c(Cl)cccc3Cl)noc2C2CC2)nc1 [Compound I-322, 6-[(1S,4R,5R)-5-{[5-cyclopropyl-3-(2,6-dichlorophenyl)-1,2-oxazol-4-yl]methoxy}-3-oxo-2-azabicyclo[2.2.1]heptan-2-yl]pyridine-3-carboxylic acid] | 7.4 | 132% |  |  |
| O=C(O)c1ccc(N2C(=O)[C@@H]3C[C@H]2C[C@H]3OCc2c(-c3c(Cl)cccc3Cl)noc2C2CC2)nn1 [Compound I-325, 6-[(1S,4R,5R)-5-{[5-cyclopropyl-3-(2,6-dichlorophenyl)-1,2-oxazol-4-yl]methoxy}-3-oxo-2-azabicyclo[2.2.1]heptan-2-yl]pyridazine-3-carboxylic Acid] | 6.6 | 104% |  |  |
| C[C@H]1[C@H]2C[C@H](C[C@@H]2OCc2c(-c3c(Cl)cccc3Cl)noc2C2CC2)N1c1ccc(C(=O)O)cc1 [Compound I-361, 4-[(1R,3S,4R,5S)-5-[[5-cyclopropyl-3-(2,6-dichlorophenyl)-1,2-oxazol-4-yl]methoxy]-3-methyl-2-azabicyclo[2.2.1]heptan-2-yl]benzoic acid] | 6 | 52% |  |  |
| C[C@H]1[C@H]2C[C@H](C[C@@H]2OCc2c(-c3c(Cl)cccc3Cl)noc2C2CC2)N1c1ccc(C(=O)NS(=O)(=O)C2CCOCC2)cn1 [Compound I-374, 6-[(1R,3S,4R,5S)-5-[[5-cyclopropyl-3-(2,6-dichlorophenyl)-1,2-oxazol-4-yl]methoxy]-3-methyl-2-azabicyclo[2.2.1]heptan-2-yl]-N-(oxane-4-sulfonyl)pyridine-3-carboxamide] | 6 | 48% |  |  |
| CC1(C)CC(S(=O)(=O)NC(=O)c2ncc(N3C(=O)[C@@H]4C[C@H]3C[C@H]4OCc3c(-c4c(Cl)cccc4Cl)noc3C3CC3)cc2F)CCO1 (stereo partly drawn) [Compound I-357, 5-((1S,4R,5R)-5-((5-cyclopropyl-3-(2,6-dichlorophenyl)isoxazol-4-yl)methoxy)-3-oxo-2-azabicyclo[2.2.1]heptan-2-yl)-N-((2,2-dimethyltetrahydro-2H-pyran-4-yl)sulfonyl)-3-fluoropicolinamide] | 8.4 | 166% |  |  |
| C[C@H]1[C@H]2C[C@H](C[C@@H]2OCc2c(-c3c(Cl)cccc3Cl)noc2C2CC2)N1c1ccc(C(=O)O)cc1F [Compound I-364, 4-[(1R,3S,4R,5S)-5-{[5-cyclopropyl-3-(2,6-dichlorophenyl)-1,2-oxazol-4-yl]methoxy}-3-methyl-2-azabicyclo[2.2.1]heptan-2-yl]-3-fluorobenzoic Acid] | 6.3 | 47% |  |  |
| CC[C@H]1[C@H]2C[C@H](C[C@@H]2OCc2c(-c3c(Cl)cccc3Cl)noc2C2CC2)N1c1ccc(C(=O)O)cc1 [Compound I-366, 4-[(1R,3S,4R,5S)-5-[[5-cyclopropyl-3-(2,6-dichlorophenyl)-1,2-oxazol-4-yl]methoxy]-3-ethyl-2-azabicyclo[2.2.1]heptan-2-yl]benzoic acid] | 6.2 | 56% |  |  |
| C[C@@H]1[C@@H]2C[C@@H](C[C@H]2OCc2c(-c3c(Cl)cccc3Cl)noc2C2CC2)N1c1ccc(C(=O)NS(=O)(=O)C2CCOCC2)nc1 [Compound I-371, 5-[(1S,3R,4S,5R)-5-[[5-cyclopropyl-3-(2,6-dichlorophenyl)-1,2-oxazol-4-yl]methoxy]-3-methyl-2-azabicyclo[2.2.1]heptan-2-yl]-N-(oxane-4-sulfonyl)pyridine-2-carboxamide] | 6.7 | 57% |  |  |
| O=C(NS(=O)(=O)[C@@H]1CCC[C@H]1O)c1ncc(N2C(=O)[C@@H]3C[C@H]2C[C@H]3OCc2c(-c3c(Cl)cccc3Cl)noc2C2CC2)cc1F [Compound I-349, 5-[(1S,4R,5R)-5-{[5-cyclopropyl-3-(2,6-dichlorophenyl)-1,2-oxazol-4-yl]methoxy}-3-oxo-2-azabicyclo[2.2.1]heptan-2-yl]-3-fluoro-N-{[(1R,2R)-2-hydroxycyclopentyl]sulfonyl}pyridine-2-carboxamide] | 8.2 | 171% |  |  |
| O=C(O)c1cnc(N2C(=O)[C@@H]3C[C@H]2C[C@H]3OCc2c(-c3c(Cl)cccc3Cl)noc2C2CC2)cn1 [Compound I-324, 5-[(1S,4R,5R)-5-{[5-cyclopropyl-3-(2,6-dichlorophenyl)-1,2-oxazol-4-yl]methoxy}-3-oxo-2-azabicyclo[2.2.1]heptan-2-yl]pyrazine-2-carboxylic Acid] | 7.1 | 140% |  |  |
| O=C(NS(=O)(=O)[C@@H]1CCC[C@H]1O)c1ccc(N2C(=O)[C@@H]3C[C@H]2C[C@H]3OCc2c(-c3c(Cl)cccc3Cl)noc2C2CC2)cn1 [Compound I-350, 5-[(1S,4R,5R)-5-{[5-cyclopropyl-3-(2,6-dichlorophenyl)-1,2-oxazol-4-yl]methoxy}-3-oxo-2-azabicyclo[2.2.1]heptan-2-yl]-N-{[(1R,2R)-2-hydroxycyclopentyl]sulfonyl}pyridine-2-carboxamide] | 8.1 | 170% |  |  |
| C[C@@H]1[C@@H]2C[C@@H](C[C@H]2OCc2c(-c3c(Cl)cccc3Cl)noc2C2CC2)N1c1ccc(C(=O)O)cc1F [Compound I-363, 4-[(1S,3R,4S,5R)-5-[[5-cyclopropyl-3-(2,6-dichlorophenyl)-1,2-oxazol-4-yl]methoxy]-3-methyl-2-azabicyclo[2.2.1]heptan-2-yl]-3-fluorobenzoic acid] | 7.1 | 61% |  |  |
| CC1(C)CC(S(=O)(=O)NC(=O)c2ccc(N3C(=O)[C@@H]4C[C@H]3C[C@H]4OCc3c(-c4c(Cl)cccc4Cl)noc3C3CC3)cn2)CCO1 (stereo partly drawn) [Compound I-354, 5-((1S,4R,5R)-5-((5-cyclopropyl-3-(2,6-dichlorophenyl)isoxazol-4-yl)methoxy)-3-oxo-2-azabicyclo[2.2.1]heptan-2-yl)-N-((2,2-dimethyltetrahydro-2H-pyran-4-yl)sulfonyl)picolinamide] | 8.1 | 138% |  |  |
